Data set [1] in a line: Turbidity of crude library peptides (absorbance at 600 nm). It is filed as physicochemical. As to conditions: Physical stability of peptides. The method in brief:
(§1)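 Turbidity is the absorbance at 600 nm, taken before heating. Fibril signal is the mean ThT emission at 480 nm (450 nm excitation), read every 10 min over 72 h at 40° C with 700 rpm shaking between reads. Peptides at 267 μM, pH 4.0 acetate or pH 7.0 phosphate buffer (50 mM), 4 μM ThT final.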

Another data set concerns the target SCTR (Homo sapiens, UniProt P47872). Kind of data set: hSCTR potency, cAMP accumulation in CHO-K1 cells stably overexpressing hSCTR. It is filed as cell-based. Further details: alternatively Euroscreen ES-712-AF; FAST-0161L; host or cells: CHO-K1. As to conditions: cAMP accumulation, CHO-K1 cells overexpressing hSCTR; read-out: pEC50 hSCTR (converted). The method in brief: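 EC50 derived from variable-slope nonlinear regression on 11-point, 3-fold series run in duplicate (crude peptides: 5 points, 10-fold, n=1). Compound stimulation lasted 30 min at room temperature in casein/IBMX-containing DPBS (0.05%, 0.5 mM), 2000 cells/well; cAMP detected by time-resolved FRET after one hour.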

Data set [2] is described as follows: Fibril formation of crude library peptides (Thioflavin T). It is filed as physicochemical. To be noted: Physical stability of peptides. Set-up: key: average ThT fluorescence emission at 480 nm (ex 450 nm), raw units. The method in brief: as §1
The next data set addresses GLP1R (Homo sapiens, UniProt P43220). Kind of data set: hGLP1R potency, cAMP accumulation in CHO-K1 cells stably overexpressing hGLP1R. It is filed as cell-based. Further details: host or cells: CHO-K1. To be noted: for Selectivity: SCTR EC50/GLP1R EC50 ratio; for EC50: cAMP accumulation, CHO-K1 cells overexpressing hGLP1R, read-out: pEC50 hGLPR1 (converted). The method in brief: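 EC50 derives from variable-slope nonlinear regression of cAMP HTRF signal, with purified peptides tested as 11 three-fold dilutions in duplicate. Assay: hGLP1R-overexpressing CHO-K1 cells, 0.5 mM IBMX, 0.05% casein in DPBS, 30 min room-temperature stimulation, GLP-1(7-36) as reference agonist.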

Numbered stars: 1 amine (or outer) side, 2 acyl side, 3 side chain; on linkers, the order of the positions; unused ones are H or OH. Square brackets hold non-standard residues; d marks the D form. Side chains are listed from the residue outwards. Peptide text beside a SMILES is read from it. * marks the point of attachment. C20 diacid = O=C(O)CCCCCCCCCCCCCCCCCCC(=O)*; γGlu = O=C(O)[C@H](CCC(=O)[*:2])N[*:1]; AEEA = NCCOCCOCC(=O)O; Aib = CC(C)(N)C(=O)O

SCTR, sequence (P47872 23-440): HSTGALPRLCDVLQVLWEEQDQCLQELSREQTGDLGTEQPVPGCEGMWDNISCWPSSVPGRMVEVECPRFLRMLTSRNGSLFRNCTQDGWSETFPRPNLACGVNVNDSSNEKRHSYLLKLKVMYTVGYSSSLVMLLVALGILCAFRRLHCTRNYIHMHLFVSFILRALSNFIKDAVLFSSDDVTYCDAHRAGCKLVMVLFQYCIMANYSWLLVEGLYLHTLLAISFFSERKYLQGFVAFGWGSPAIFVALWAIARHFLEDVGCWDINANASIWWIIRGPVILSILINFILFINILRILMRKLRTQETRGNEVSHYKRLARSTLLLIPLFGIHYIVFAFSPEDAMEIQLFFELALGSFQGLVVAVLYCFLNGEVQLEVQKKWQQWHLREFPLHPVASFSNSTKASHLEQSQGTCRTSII
GLP1R, sequence (P43220 24-463): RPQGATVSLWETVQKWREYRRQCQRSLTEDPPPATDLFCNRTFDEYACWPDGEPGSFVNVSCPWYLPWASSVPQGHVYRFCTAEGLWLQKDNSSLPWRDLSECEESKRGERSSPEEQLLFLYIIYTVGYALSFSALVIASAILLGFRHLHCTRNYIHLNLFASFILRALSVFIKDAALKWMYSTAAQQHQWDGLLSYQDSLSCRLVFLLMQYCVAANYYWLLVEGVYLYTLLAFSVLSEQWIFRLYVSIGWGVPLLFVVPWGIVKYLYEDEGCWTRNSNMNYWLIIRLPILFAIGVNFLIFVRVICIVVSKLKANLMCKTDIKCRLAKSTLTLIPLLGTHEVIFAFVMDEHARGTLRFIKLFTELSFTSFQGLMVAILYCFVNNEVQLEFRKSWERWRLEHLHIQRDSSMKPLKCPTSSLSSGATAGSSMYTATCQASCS

Regarding `CC(C)C[C@H](NC(=O)[C@H](Cc1ccccc1)NC(=O)[C@H](CCCNC(=N)N)NC(=O)[C@H](CCC(N)=O)NC(=O)C(C)(C)NC(=O)[C@H](C)NC(=O)[C@H](C)NC(=O)[C@@H](NC(=O)[C@H](CCC(=O)O)NC(=O)[C@H](CCCCNC(=O)COCCOCCNC(=O)COCCOCCNC(=O)CC[C@H](NC(=O)CCCCCCCCCCCCCCCCCCC(=O)O)C(=O)O)NC(=O)[C@H](CC(C)C)NC(=O)[C@H](CCC(=O)O)NC(=O)[C@H](CO)NC(=O)[C@@H](NC(=O)[C@H](CC(=O)O)NC(=O)[C@H](CO)NC(=O)[C@@H](NC(=O)[C@H](Cc1ccccc1)NC(=O)[C@@H](NC(=O)CNC(=O)[C@H](CCC(=O)O)NC(=O)C(C)(C)NC(=O)[C@@H](N)Cc1c[nH]cn1)[C@@H](C)O)[C@@H](C)O)C(C)C)[C@@H](C)O)C(=O)N[C@@H](CCC(=O)O)C(=O)N[C@@H](Cc1c[nH]cn1)C(=O)N[C@@H](CC(C)C)C(=O)N[C@H](C(N)=O)C(C)C` [compound 45] (H-H[Aib]EGTFTSDVSELK([AEEA-AEEA-γGlu-C20 diacid])ETAA[Aib]QRFLEHLV-NH2), the “Turbidity (pH 7)” value in data set [1] is 0.09. Besides, on SCTR, the EC50 is 2000 nM. In addition, the Fibril formation in data set [2] is on record as 14290. In addition, at GLP1R, the Selectivity came to 86896 and the EC50 was 0.02 nM.
On the same counts, the results for `CC(C)C[C@H](NC(=O)[C@H](Cc1ccccc1)NC(=O)[C@H](CCCNC(=N)N)NC(=O)[C@H](CCC(N)=O)NC(=O)C(C)(C)NC(=O)[C@H](C)NC(=O)[C@H](C)NC(=O)[C@H](Cc1ccccc1)NC(=O)[C@H](CCC(=O)O)NC(=O)[C@H](CCCCNC(=O)COCCOCCNC(=O)COCCOCCNC(=O)CC[C@H](NC(=O)CCCCCCCCCCCCCCCCCCC(=O)O)C(=O)O)NC(=O)[C@H](CC(C)C)NC(=O)[C@H](Cc1ccc(O)cc1)NC(=O)[C@H](CO)NC(=O)[C@@H](NC(=O)[C@H](CC(=O)O)NC(=O)[C@H](CO)NC(=O)[C@@H](NC(=O)[C@H](Cc1ccccc1)NC(=O)[C@@H](NC(=O)CNC(=O)[C@H](CCC(=O)O)NC(=O)C(C)(C)NC(=O)[C@@H](N)Cc1c[nH]cn1)[C@@H](C)O)[C@@H](C)O)C(C)C)C(=O)N[C@@H](CCC(=O)O)C(=O)N[C@@H](Cc1c[nH]cn1)C(=O)N[C@@H](CC(C)C)C(=O)N[C@H](C(N)=O)C(C)C` [compound 46] (H-H[Aib]EGTFTSDVSYLK([AEEA-AEEA-γGlu-C20 diacid])EFAA[Aib]QRFLEHLV-NH2) are 0.08, 3980 nM, 16732, 67329 and 0.0501 nM.
On the same counts, the results for `CC(C)C[C@H](NC(=O)[C@H](Cc1ccccc1)NC(=O)[C@H](CCCNC(=N)N)NC(=O)[C@H](CCC(N)=O)NC(=O)[C@H](CCC(N)=O)NC(=O)[C@H](C)NC(=O)[C@H](C)NC(=O)[C@H](CCC(=O)O)NC(=O)[C@H](CCC(=O)O)NC(=O)[C@H](CCCCNC(=O)COCCOCCNC(=O)COCCOCCNC(=O)CC[C@H](NC(=O)CCCCCCCCCCCCCCCCCCC(=O)O)C(=O)O)NC(=O)[C@H](CC(C)C)NC(=O)[C@H](Cc1ccc(O)cc1)NC(=O)[C@H](CO)NC(=O)[C@@H](NC(=O)[C@H](CC(=O)O)NC(=O)[C@H](CO)NC(=O)[C@@H](NC(=O)[C@H](Cc1ccccc1)NC(=O)[C@@H](NC(=O)CNC(=O)[C@H](CCC(=O)O)NC(=O)C(C)(C)NC(=O)[C@@H](N)Cc1c[nH]cn1)[C@@H](C)O)[C@@H](C)O)C(C)C)C(=O)N[C@@H](CCC(=O)O)C(=O)N[C@@H](Cc1c[nH]cn1)C(=O)N[C@@H](CC(C)C)C(=O)N[C@H](C(N)=O)C(C)C` [compound 47] (H-H[Aib]EGTFTSDVSYLK([AEEA-AEEA-γGlu-C20 diacid])EEAAQQRFLEHLV-NH2) are 0.08, 251 nM, 13638, 17543 and 0.0158 nM.
